Test results published in US10226482B2, “Copolymer and method for treatment of bacterial infection” (RECCE LIMITED, priority 2014, dated 2019).
Where two headings read alike, the source gives them in different places.

Key:
MRSA (S. aureus USA300) = assay: Example 9: curative treatment by tail injection of infected mice; format: in vivo, BALB/c mice; conditions: 1 to 7 scale (1 alert and healthy); tail injection 24 hours after infection; Example 1 132 mg/Kg, Comparative Example 1 167 mg/Kg, Oxacillin 500 mg/Kg
Method: All experiments were prior-audited, and then supervised to comply with international standards to ensure humane treatment of the animals. All experiments were performed in independent laboratories. In particular, all experiments in Examples 6, 7 and 8 were done in USA within pre-designed protocols specifically to research sepsis and bacteremia; protocols were “blinded” of the identity of test-solutions, to both the supervisor and assistants. All infections were in 100 μL, designed to result in approximately 10^7 cfu/mL infection of mouse-blood; mice were type BALB/c—ten per group in each experiment. Mice were assessed by either sacrifice followed by cfu/g count of bacteria within organ(s), or within a 1 to 7 scale of Health Score, including (1; alert and healthy) to (5; sick and very ruffled coat; euthanized) to (7; deceased). The protocols are tabulated, and follow.
Four groups of each 10 mice were infected with S. aureus superbug (S. aureus USA300), and 24 hours afterwards each group treated curatively with respectively: The copolymer of Example 1 (Ex 1) MW 500 at 132 mg/Kg of mouse; copolymer MW 2500 Comparative Example 1 (CE 1) at 167 mg/Kg of mouse; positive control Oxacillin, 500 mg/Kg and negative control saline. FIG. 5 is a chart showing the number of mice culled due to morbidity or mortality.

P. aeruginosa = format: cell-based; conditions: with broth
Method: Three test organisms—E. coli, S. aureus and P. aeruginosa—were respectively inoculated to achieve an approximate concentration 10^6 cfu/mL in the test solutions; the test solutions each comprised 19 g sterile distilled water, 1 mL trypticase soy broth and copolymer (Example 1; 383 mg; 5.4% w/w on acrolein added) or Comparative Example 1; 303 mg; 6.7% w/w solution on acrolein added). The inoculated test solutions, pH 6.5 to 7.0 were then incubated at 37° C. for sufficient time-periods such that approximately 10^2-10^3 cfu/mL (or 99-99.9% of organisms) killed was achieved.
(§1) A 1 mL aliquot was removed from each respective solution and mixed for one minute with a 1 mL aliquot of Trypticase Soy Broth, then 8 mL of sterile water was added and mixed. Aliquots (1 mL) were then removed from each solution and lawn-inoculated by flooding onto Horse Blood Agar plates for 24-48 hours incubation at 37° C. Visual counts of bacterial growth on the plates were performed.
(§2) Successive generations of E. coli, S. aureus or P. aeruginosa respectively were cultivated via their selection through repeated exposure to a copolymer or Amoxicillin; Organisms surviving treatment were harvested for another cycle of treatment—this process being repeated up to 25 times.

E. coli = format: cell-based
Method: (§3) […] The inoculated test solutions, pH 6.5 to 7.0 were then incubated at 37° C. for sufficient time-periods such that approximately 10^2-10^3 cfu/mL (or 99-99.9% of organisms) killed was achieved.
as §1, §2

S. aureus = format: cell-based
Method: as §3, §1, §2

[1] = 0.35% w/w solution of Amoxicillin

| SMILES | Health Score of surviving mice (MRSA (S. aureus USA300)) | Number of generations of microbes to resistance (P. aeruginosa) | generation after which bacterial resistance resulted (E. coli; [1]) | Number of generations of microbes to resistance (E. coli; with broth) | Number of generations of microbes to resistance (E. coli; without broth) | generation after which bacterial resistance resulted (S. aureus; [1]) | Number of generations of microbes to resistance (S. aureus; with broth) | Number of generations of microbes to resistance (S. aureus; without broth) |
| --- | --- | --- | --- | --- | --- | --- | --- | --- |
| Cc1onc(-c2ccccc2)c1C(=O)N[C@@H]1C(=O)N2[C@@H]1SC(C)(C)[C@@H]2C(=O)O [Oxacillin] | 2.5 |  |  |  |  |  |  |  |
| CC1(C)S[C@@H]2[C@H](NC(=O)[C@H](N)c3ccc(O)cc3)C(=O)N2[C@H]1C(=O)O [Amoxicillin] |  | 6 | second | 8 | 2 | eighth | 10 | 8 |
